In US6784155B1, “Inhibitor and stimulator of stem cell proliferation and uses thereof” (Wellstat Therapeutics Corporation, priority 1996, dated 2004):
No end group written: not given here.

Assays:
[1] = tested on: CFU-MIX; test: CFU-MIX cycling assay in vitro (Ara C kill); type: cell-based, mouse
Experimental: A similar assay can be performed in vitro, using the cycling status of CFU-MIX instead of CFU-S. The assay is performed as described above for the CFU-S assay except that cytosine arabinoside (Ara C, 30 micrograms/ml) is used as the cycle-specific toxic agent instead of high dose tritiated thymidine (see B. I. Lord in Haemopoiesis—A Practical Approach, N. G. Testa and G. Molineux (Eds.), IRL Press 1993; Pragnell et al. in Culture of Hematopoietic Cells, R. I. Freshney, I. B. Pragnell and M. G. Freshney (Eds.), Wiley Liss 1994) and a mouse strain with high endogenous cycling rates (Balb/c) is used instead of testosterone-treated BDFI mice.
(§1) 24 hours later (Day 1), varying doses of peptide 43-55 or vehicle were injected i.v. Bone marrow was harvested on Day 2 and the […] cycling assay conducted as in Example 14. Specifically, mice were sacrificed and single cell bone marrow suspensions prepared from the femurs. The cells were washed once and the concentration adjusted to 5×10^6 cells/ml in Fischer medium. For each test condition, one milliliter of cells was added to each of two polypropylene tubes. The tubes were incubated at 37° C. for 3 hours without (“Control”) or with (“Experimental”) the appropriate concentration of test substance. At the end of the incubation, 30 μg/ml of cytosine arabinoside (“Ara C” (Sigma)) was added to half of the tubes and the same volume of Fischer's medium was added to the others. The tubes were incubated for a further 1 hour at 37° C., after which they were placed on ice and washed twice with cold Fischer medium.
(§2) The cells were readjusted to 5×10^4-10^6/ml in Fischer's medium and 0.5 ml of cell suspension added to 5 ml of Methocult M3430 methylcellulose medium (Stem Cell Technologies, Vancouver, British Columbia). The mixture was vigorously mixed with a vortex and 1 ml was dispensed into each of five 35 mm dishes. The 35 mm dishes were in turn placed in a covered 150 mm dish with one open 35 mm dish containing sterile water. CFU-MIX colonies were counted with the use of an inverted microscope after 7 days of incubation at 37° C.
Differences in colony number between the tubes treated with medium versus the tubes treated with Ara C represent the percentage of cells in cycle under that condition according to the formula:
a=Number of CFU-MIX from tube incubated with medium alone
b=Number of CFU-MIX from tube incubated with Ara C

[2] = tested on: CFU-GEMM; test: CFU-GEMM cycling assay, mobilized human peripheral blood; type: cell-based
Experimental: Peripheral blood was obtained from breast cancer patients undergoing peripheral stem cell mobilization with cyclophosphamide and G-CSF according to standard protocols. Red blood cells were removed with FicolU Hypaque (cells were diluted 1:1 with IMDM and 20 ml layered on top of 16 ml Ficoll and centrifuged at 800 g for 30 minutes; mononuclear cells were removed from the interphase and washed twice in IMDM). In one case mononuclear cells were stored frozen in liquid nitrogen before assay. The mononuclear cells were plated for the CFU-GEMM cycling assay as in Example 26 except that 2.5-5×10^5 cells were plated per dish.

[3] = tested on: CFU-GEMM; test: CFU-GEMM cycling assay, human umbilical cord blood cells; type: cell-based
Experimental: In order to investigate the ability of purified INPROL from porcine bone marrow to affect cycling on human progenitors, umbilical cord blood cells were obtained. Either the total mononuclear cell fraction obtained after separation on Ficoll or the CD34^+ fraction obtained after fractionation on anti-CD34 affinity columns (CellPro Inc.) was used. Cells were incubated for 48 hours in vitro in the presence of interleukin 3 (IL-3) and stem cell factor (SCF) (100 ng/ml each) in order to ensure that the early stem cells were in cycle. After this preincubation, cycling assays were conducted as described in Example 14 for the mouse except that CFU-GEMM (instead of CFU-MIX) were counted on Day 18 after plating.
The human cord blood CFU-GEMM cycling assay was conducted as in Example 19. Specifically, mononuclear cells were isolated from human umbilical cord blood cells and adjusted to 24×10^4 cells/ml in IMDM tissue culture medium supplemented with 10% FBS, 100 ng/ml kit ligand and 100 ng/ml human IL-3. The cells were incubated for 48 hours at 37° C.
After incubation, cells were washed and resuspended in serun-free NDM at a concentration of 10^6 cells/ml. One ml of cells was added to each of two polypropylene tubes per condition and the cycling assay conducted as in Example 24 for mouse bone marrow. After the Ara C incubation cells were washed with cold NDM and adjusted to 10,000 to 20,000 cells per 0.5 ml IMDM and mixed with 5 ml Methocult H4433 (Stem Cell Technologies). Alternatively, Methocult H4435 methylcellulose medium (Stem Cell Technologies) was used in which case the cell concentration was adjusted to 2500-5000 cells per 0.5 ml IMDM. The cells were plated as in Example 24 and CFU-GEMM colonies scored on days 14-18.

[4] = tested on: CFU-MIX; test: Stimulation of cycling of quiescent murine stem cells, CFU-MIX cycling assay in vitro; type: cell-based, mouse
Experimental: Microgram per milliliter doses of hemoglobin chains, myoglobin and peptides were assayed for stimulation of quiescent stem cells. Bone marrow was obtained from untreated B6D2F1 tested in the CFU-MIX cycling assay as in Example 24. Stem cells isolated from untreated B6D2F1 mice are normally slowly cycling unless stimulated (e.g. by testosterone propionate (cf. Example 1) or chemotherapy such as 5FU (cf. Example 4)) to enter into cycle.

[5] = tested on: CFU-MIX; test: CFU-MIX cycling assay after in vivo injection into testosterone or 5FU treated mice; set-up: species or system mouse
Experimental: In order to test the ability of purified porcine hemoglobin chains to act in vivo, BDF1 mice were injected with testosterone propionate as described in Example 1. Twenty four hours later, mice received 500 ng of either pINPROL, porcine hemoglobin alpha chain (purified from peripheral red blood cells as in FIG. 21), porcine beta chain (purified from peripheral red blood cells as in FIG. 21) or the equivalent volume of carrier intravenously. Forty eight hours later the bone marrow from each mouse was harvested and the CFU-MIX assay conducted as described in Example 14.
To assess the stem cell inhibitory activity of peptide 43-55 in vivo, B6D2 F1 mice were pre-treated with testosterone propionate as described in Example 1 or with 5FU. Specifically, testosterone propionate (100 mg/kg body weight) was injected i.p. on Day 0 into mice. Alternatively, mice were injected on Day 0 with 5FU ([…] body weight).
as §1, §2
Differences in colony number between the tubes treated with medium versus the tubes treated with Ara C represent the percentage of cells in cycle under that condition according to the formula: […]

[6] = Table 32, cord blood mononuclear cells, 100 ng/ml

Substance: FPHFDLSHGSAQV [Peptide 43-55, amino acids 43-55 of human alpha hemoglobin]
- % Kill ([1]; Table 17, 1 ng/ml): 11%
- % Kill ([1]; Table 17, 10 ng/ml): 18%
- % Kill ([1]; Table 17, 100 ng/ml): 2%
- % Kill ([1]; Table 18, 100 ng/ml): 5%
- % Kill ([1]; Table 24, 1 ng/ml): 8%
- % Kill ([1]; Table 27, Balb/c bone marrow, 1 ng/ml): 8%
- % Kill ([1]; Table 28, 10 ng/ml, alone): 6%
- % Kill ([1]; Table 31, 10 ng/ml, alone): 8%
- % Kill ([2]; Table 35, Patient #2, 10 ng/ml): 0%
- % Kill ([2]; Table 36, Patient #3, cells stored frozen before assay, 0.1 ng/ml): 23%
- % Kill ([2]; Table 36, Patient #3, cells stored frozen before assay, 1.0 ng/ml): 0%
- % Kill ([2]; Table 36, Patient #3, cells stored frozen before assay, 10 ng/ml): 15%
- % Kill ([3]; Table 32, cord blood mononuclear cells, 1 ng/ml): 20%
- % Kill ([3]; Table 32, cord blood mononuclear cells, 10 ng): 12%
- % Kill [3, 6]: 5%
- % Kill ([4]; Table 40, untreated B6D2F1 bone marrow, 10 μg/ml): 26%
- % Kill ([5]; Table 22, testosterone-pretreated animals, 0.5 ng i.v. per 20 gram mouse): 0%
- % Kill ([5]; Table 23, 5FU-pretreated animals, 0.5 ng i.v. per 20 gram mouse): 3%

Substance: Human alpha chain: purified, non-recombinant human alpha hemoglobin chain isolated by reversed-phase HPLC
- % Kill ([1]; Table 11, bone marrow from Balb/c mice, 100 ng/ml): −1%
- % Kill ([1]; Table 13, bone marrow from Balb/c mice, 100 ng/ml): 19%
- % Kill ([1]; Table 20, Balb/c bone marrow, 100 ng/ml): 12%
- % Kill ([1]; Table 25, Balb/c bone marrow, 100 ng/ml): 0%
- % Kill ([1]; Table 28, 100 ng/ml, alone): 0%
- % Kill ([1]; Table 30, 100 ng/ml): 0%
- % Kill ([1]; Table 31, 100 ng/ml, alone): 0%
- % Kill ([2]; Table 34, Patient #1, 100 ng/ml): 0%
- % Kill ([2]; Table 35, Patient #2, concentration printed only as (ng/ml)): 2%
- % Kill ([3]; Table 16, cord blood mononuclear cells, 100 ng/ml): −23%
- % Kill [3, 6]: 0%
- % Kill ([4]; Table 37, untreated B6D2F1 bone marrow, 1 μg/ml): 0%
- % Kill ([4]; Table 37, untreated B6D2F1 bone marrow, 10 μg/ml): 24%
- % Kill ([4]; Table 37, untreated B6D2F1 bone marrow, 100 μg/ml): 40%
- % Kill ([4]; Table 39, untreated B6D2F1 bone marrow, 100 μg/ml): 41%
- % Kill ([4]; Table 40, untreated B6D2F1 bone marrow, 100 μg/ml): 30%
- % Kill ([5]; Table 14, testosterone-treated BDF1 mice, 500 ng/mouse): −22%
- % Kill ([5]; Table 22, testosterone-pretreated animals, 500 ng i.v. per 20 gram mouse): 13%
- % Kill ([5]; Table 23, 5FU-pretreated animals, 500 ng i.v. per 20 gram mouse): 0%
